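In this assay, cells in 96-well plates receive the compound at five concentrations for 48 hours. Endpoints are linearly interpolated between the surrounding concentrations. At the GI50, growth is halved.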 The source made the active and inactive calls. Cut-off read from the data, not from the text of the source: active = GI50 up to about 1.1 µM and inactive = higher.

Some test systems named below: KM12; EKVX; OVCAR-8; LOX IMVI; Hs-578T; NCI-H23; UACC-62; NCI-H522; TK-10; ACHN; DU-145; SK-OV-3; SW-620; BT-549; NCI-H226; SN12C; HCT-15; A498; SNB-75; HOP-92.
What all share (experiment): NCI-60 cell line screen, 48 h

Turning to `O=[N+]([O-])c1ncc(N(CCO)CCO)s1`, the GI50 was > 100 µM (inactive) in the test on KM12; > 100 µM (inactive) in the test on EKVX; 53.5 µM (inactive) in the test on OVCAR-8; 15.6 µM (inactive) with LOX IMVI; 32.1 µM (inactive) in the test on Hs-578T; 41 µM (inactive) in the test on NCI-H23. The GI50 in the test with UACC-62 was 19.8 µM (inactive); in the test with NCI-H522 it was 16.4 µM (inactive); with TK-10, 34.9 µM (inactive); in the test on ACHN, 37.7 µM (inactive); with DU-145, 65.9 µM (inactive); in the test with SK-OV-3, > 100 µM (inactive). Further, the GI50 with SW-620 is 33.3 µM (inactive); in the test on BT-549, 26.5 µM (inactive); in the test on NCI-H226 it was > 100 µM (inactive); in the test on SN12C, 41.4 µM (inactive); in the test with HCT-15, 33.3 µM; in the test on A498 it was 65.5 µM (inactive). The GI50 in the test on SNB-75 is 30.8 µM (inactive).
Turning to `CC(=O)OC1O[C@@H](C(C)(C)O)CC[C@@H]1[C@H]1CC[C@@]2(C)C3=C(CC[C@]12C)[C@@]1(C)C[C@@H](OC(=O)CC(C)(O)CC(=O)O)[C@H](OC(C)=O)C(C)(C)C1CC3` (stereo not given in full), the GI50 with HOP-92 was 16.7 µM (inactive); with KM12, 21.9 µM (inactive); in the test with EKVX, 17.5 µM (inactive); with OVCAR-8, 17.1 µM (inactive); with LOX IMVI it was 17.7 µM (inactive); in the test on Hs-578T, 19.5 µM (inactive). Further, the GI50 in the test on NCI-H23 is 21.2 µM (inactive); in the test with UACC-62, 27.7 µM (inactive); in the test with TK-10, 19.1 µM (inactive); with ACHN it was 18 µM (inactive); with DU-145 it was 19.1 µM (inactive); in the test on SK-OV-3, 18.2 µM (inactive). Further, the GI50 with SW-620 is 17.5 µM (inactive); in the test on BT-549, 15.8 µM (inactive); in the test with NCI-H226, 21.7 µM (inactive); in the test on SN12C it was 19.2 µM (inactive); in the test on HCT-15, 22.4 µM; in the test with A498, 19.2 µM (inactive).
Consider `CN1C/C(=C\c2cccs2)C2=NC(=S)NC(c3cccs3)C2C1` (stereo not given), for which the GI50 in the test on HOP-92 is 33.6 µM (inactive); in the test on KM12 it was 57 µM (inactive); in the test with EKVX it was 56.4 µM (inactive); in the test on OVCAR-8, 40.7 µM (inactive); in the test on LOX IMVI, 67.9 µM (inactive); with Hs-578T, > 100 µM (inactive). Moreover, the GI50 was 77.6 µM (inactive) in the test with NCI-H23; 81.1 µM (inactive) in the test with UACC-62; 36.4 µM (inactive) in the test on NCI-H522; 46.1 µM (inactive) in the test with TK-10; 64.9 µM (inactive) in the test on ACHN; > 100 µM (inactive) in the test with DU-145. Further, the GI50 in the test with SK-OV-3 is > 100 µM (inactive); in the test with SW-620, > 100 µM (inactive); in the test with BT-549 it was 46.1 µM (inactive); in the test with NCI-H226, > 100 µM (inactive); with SN12C, > 100 µM (inactive); in the test on HCT-15, 77.6 µM. Moreover, in the test on A498, the GI50 was 61.8 µM (inactive).
As to `CCNC(=O)Cc1nc2c(N)ncnc2n1C1OC(CO)C(O)C1O` (stereo not given), the GI50 with HOP-92, in the test on KM12, in the test on EKVX, with OVCAR-8, with LOX IMVI and in the test on Hs-578T was > 100 µM (inactive) each time. The GI50 in the test on NCI-H23, with UACC-62, in the test with NCI-H522, in the test with TK-10, in the test on ACHN and in the test on DU-145 was > 100 µM (inactive) throughout. Further, the GI50 with SK-OV-3 was 39 µM (inactive); in the test with SW-620 it was > 100 µM (inactive); in the test with BT-549, > 100 µM (inactive); in the test on NCI-H226 it was > 100 µM (inactive); with SN12C, > 100 µM (inactive); with HCT-15 it was more than 100 µM. In addition, the GI50 in the test with A498 is > 100 µM (inactive).
`CN(C)CCNC(=O)c1cccc2c1Oc1cccc([N+](=O)[O-])c1O2`: the GI50 in the test on KM12 is 22.8 µM (inactive); in the test with OVCAR-8, 20.8 µM (inactive); in the test with Hs-578T it was 18.4 µM (inactive); in the test on NCI-H23, 24.7 µM (inactive); in the test on UACC-62, 18.1 µM (inactive); with NCI-H522 it was 16.1 µM (inactive). The GI50 was 21.4 µM (inactive) with TK-10; 18.7 µM (inactive) in the test on ACHN; 17.7 µM (inactive) in the test on DU-145; 14 µM (inactive) in the test with SK-OV-3; 19.3 µM (inactive) in the test with SW-620; 13.3 µM (inactive) in the test with BT-549. Also, the GI50 was 12.7 µM (inactive) in the test on NCI-H226; 23.3 µM (inactive) in the test with SN12C; 33.8 µM in the test with HCT-15; 15 µM (inactive) in the test with A498; 13.9 µM (inactive) with SNB-75.
For `CCOC(=O)C(Br)(C(N)=O)C1(O)OC(c2ccccc2)=C(Br)C1=O` (stereo not given), the GI50 is > 100 µM (inactive) in the test with KM12; 23.2 µM (inactive) in the test with EKVX; 17.5 µM (inactive) in the test with OVCAR-8; 21.3 µM (inactive) with LOX IMVI; 50.7 µM (inactive) in the test on Hs-578T; 23.7 µM (inactive) with NCI-H23. Besides, the GI50 was 27.8 µM (inactive) in the test with UACC-62; 3.42 µM (inactive) with NCI-H522; 16.7 µM (inactive) in the test with TK-10; 17.5 µM (inactive) in the test with ACHN; 44.6 µM (inactive) in the test on DU-145; 66.1 µM (inactive) with SK-OV-3. For the same compound, the GI50 in the test on SW-620 is 20 µM (inactive); in the test on BT-549, 19.2 µM (inactive); in the test with NCI-H226, 19.2 µM (inactive); in the test with SN12C, 17.2 µM (inactive); in the test on HCT-15 it was 16.7 µM; in the test on A498 it was > 100 µM (inactive).
As for `COC1OC(CBr)C(OC(c2ccccc2)(c2ccccc2)c2ccccc2)C(OC(c2ccccc2)(c2ccccc2)c2ccccc2)C1OC(c1ccccc1)(c1ccccc1)c1ccccc1` (stereo not given), the GI50 with HOP-92 was 17.1 µM (inactive); in the test with KM12, > 100 µM (inactive); in the test with EKVX, 17.5 µM (inactive); in the test on OVCAR-8, 27.1 µM (inactive); with LOX IMVI, > 100 µM (inactive); in the test with Hs-578T, 34.9 µM (inactive). For the same compound, the GI50 was 87.3 µM (inactive) in the test with NCI-H23; > 100 µM (inactive) with UACC-62; 16 µM (inactive) in the test on NCI-H522; 28.3 µM (inactive) in the test on TK-10; 45.9 µM (inactive) in the test with ACHN; 76.2 µM (inactive) with DU-145. In addition, the GI50 with SK-OV-3 was 23 µM (inactive); in the test with SW-620, 64.1 µM (inactive); in the test with BT-549, 56.9 µM (inactive); in the test on NCI-H226, 33.4 µM (inactive); in the test with SN12C it was 41.3 µM (inactive); with HCT-15, more than 100 µM. Moreover, in the test on A498, the GI50 was 78.2 µM (inactive).
As for `COc1cc(Cn2c3c(c4cc(O)ccc42)C(=O)c2ccccc2C3=O)cc(OC)c1`, the GI50 in the test with HOP-92 was 1.85 µM (inactive); in the test on KM12 it was 2.43 µM (inactive); in the test on EKVX it was 15.3 µM (inactive); in the test with OVCAR-8, 3.55 µM (inactive); in the test with LOX IMVI, 31.7 µM (inactive); with Hs-578T, 11 µM (inactive). Further, the GI50 in the test with NCI-H23 was 8.57 µM (inactive); with UACC-62 it was 2.04 µM (inactive); with NCI-H522, 2.43 µM (inactive); in the test on TK-10 it was 11.6 µM (inactive); with ACHN it was 1.61 µM (inactive); in the test with DU-145, 10.8 µM (inactive). Moreover, the GI50 with SK-OV-3 is 2.32 µM (inactive); with SW-620 it was 16.7 µM (inactive); in the test with BT-549, 1.82 µM (inactive); in the test with SN12C it was 5.09 µM (inactive); in the test on HCT-15 it was 11.7 µM; with A498, 15.4 µM (inactive).
On to `Cc1ccc(-n2cc([Si](C)(C)C)nn2)s1`, for which the GI50 with HOP-92 was > 100 µM (inactive); with OVCAR-8, > 100 µM (inactive); with LOX IMVI, > 100 µM (inactive); with Hs-578T it was > 100 µM (inactive); in the test on NCI-H23, 68.4 µM (inactive); in the test with UACC-62, > 100 µM (inactive). Besides, the GI50 in the test with NCI-H522, with TK-10, in the test on ACHN, in the test with DU-145, with SK-OV-3 and with SW-620 was > 100 µM (inactive) throughout. Moreover, the GI50 in the test with BT-549 is > 100 µM (inactive); in the test with NCI-H226 it was > 100 µM (inactive); in the test with SN12C, > 100 µM (inactive); in the test with HCT-15, more than 100 µM; with A498, > 100 µM (inactive).
For `COC(=O)c1c(-c2ccc(Cl)cc2)cc2c3ccccc3n(C)c2c1C(=O)OC`, the GI50 in the test on HOP-92, with KM12, with EKVX, in the test with OVCAR-8, in the test with LOX IMVI and in the test with Hs-578T was > 100 µM (inactive) throughout. Besides, the GI50 is > 100 µM (inactive) in the test with NCI-H23; > 100 µM (inactive) in the test on UACC-62; 67.5 µM (inactive) with NCI-H522; > 100 µM (inactive) in the test on TK-10; > 100 µM (inactive) in the test with ACHN; > 100 µM (inactive) in the test with DU-145. The GI50 is > 100 µM (inactive) in the test on SK-OV-3; > 100 µM (inactive) with SW-620; > 100 µM (inactive) in the test on BT-549; > 100 µM (inactive) in the test with NCI-H226; > 100 µM (inactive) with SN12C; more than 100 µM with HCT-15. The GI50 in the test on A498 is > 100 µM (inactive).
In the case of `CC1(C)[C@@H]2C[C@H]1C(Cc1cccc(C[C@H]3c4cc(-c5ccccn5)ncc4[C@H]4C[C@@H]3C4(C)C)c1)c1cc(-c3ccccn3)ncc12` (stereo not given in full), the GI50 with KM12 is 0.647 µM (active); in the test on OVCAR-8 it was 0.478 µM (active); in the test with LOX IMVI, 0.556 µM (active); in the test with Hs-578T, > 100 µM (inactive); in the test on NCI-H23 it was 1.82 µM (inactive); in the test on UACC-62, 0.499 µM (active). The GI50 was 1.63 µM (inactive) in the test with NCI-H522; 2.44 µM (inactive) with TK-10; 0.328 µM (active) in the test with ACHN; 0.993 µM (active) in the test with DU-145; 1.25 µM (inactive) in the test on SK-OV-3; 0.745 µM (active) in the test with SW-620. Further, the GI50 with BT-549 was 5.06 µM (inactive); with SN12C it was 0.834 µM (active); in the test with HCT-15, 1.09 µM; with A498 it was 3.51 µM (inactive); in the test with SNB-75, 5.05 µM (inactive).

For the origin of these results see ChEMBL document CHEMBL1201862, “PubChem BioAssay data set” (2004).
